Some results are limits rather than exact numbers.

In one test the test system is Cowpox virus. As to the kind of experiment: Inhibitory concentration required against Cowpox virus in Vero cell culture. Format: functional, organism-based.
For a further test, the system named is Monkeypox virus. As to the kind of experiment: Inhibitory concentration required against Monkeypox virus in Vero cell culture. Format: functional, organism-based.
Test [1] in a line: Cytotoxic concentration at which cell viability was reduced by 50%. Format: functional.
Another test concerns Vaccinia virus. Nature of the test: Inhibitory concentration required against vaccinia virus in Vero cell culture. Format: functional, organism-based. The settings on record: Orthopoxvirus vaccinia.
A further test has as its system Variola virus. Nature of the test: Inhibitory concentration required against replication of small pox virus (strain India 3a) in Vero cells. Format: functional, organism-based.

As for `Nc1ncnc2c1ncn2C[C@H]1COP(=O)(O)CO1`, the values for the IC50 in the test with Cowpox virus, in the test on Monkeypox virus and in the test with Vaccinia virus were 61 µM, 48 µM and 41 µM, respectively. The CC50 in test [1] was greater than 350 µM.
`Nc1ncnc2c1ncn2C[C@H](O)C(=O)O`: the half-maximal inhibitory concentration (IC50) in the test on Variola virus amounted to 91 µM.
`COC(CO)O[C@@H](CO)Cn1cnc2c(N)ncnc21` (some centres undefined) showed an IC50 in the test with Variola virus of 62 µM.
For the molecule `Nc1ncnc2c1ncn2C[C@@H](O)CO`, the IC50 with Cowpox virus, in the test on Monkeypox virus and in the test on Vaccinia virus was greater than 500 µM in each case. In test [1], this molecule showed a CC50 greater than 500 µM.
As to `Nc1ncnc2c1ncn2C[C@H](O)CO` [(S)-DHPA], the IC50 with Cowpox virus was 49 µM; in the test with Monkeypox virus, 54 µM; with Variola virus it was 41 µM; in the test on Vaccinia virus, 34 µM. The molecule also yielded a CC50 in test [1] greater than 500 µM.
For the molecule `Nc1ncnc2c1ncn2C[C@@H]1COP(=O)(O)CO1`, the IC50 with Cowpox virus, with Monkeypox virus and with Vaccinia virus was greater than 350 µM each time. Moreover, the CC50 in test [1] is greater than 350 µM.

The values are drawn from ChEMBL document CHEMBL1147452, “A new approach to the synthesis of optically active alkylated adenine derivatives” (Bioorg Med Chem Lett, 2004).
